Measured values from patent US20260055110A1 (Azura Ophthalmics Ltd., priority 2021, published 2026).

Experiments:
[1] = tested on: Rabbit Cornea Esterase; assay: Rabbit Cornea Homogenate Stability Assay (Rabbit Cornea Esterase Assay); format: in vitro ADME; conditions: Table 13, rabbit breed not given
Description: Example 1: Rabbit Cornea Homogenate Stability Assay […]
Three to four rabbit corneas (e.g., New Zealand Whites (NZW) or Dutch Belted (DB)) of approx. 50 mg each were sliced and scraped with a scalpel and tweezers until reduced to small (1-3 mm), thin pieces. These were transferred into a glass vial containing approximately 2 mL of cold DPBS pH 7.4 buffer.
Sample was cooled intermittently on ice and shear homogenized for 3 minutes, then centrifuged for 3 min at 13,000 g. The supernatant was pipetted off into a vial, and total protein concentration determined at 280 nm. Sample was stored at −78° C.
10 mM Compound DMSO stocks were diluted to 10 μM in a glass vial: 10 μL of 10 mM Compound stock was added to 9,990 μl 50 mM DPBS, pH 7.4 buffer. Esterase homogenate was diluted to 300 ng/μl and 900 ng/μL in DPBS.
A heater shaker was set to 37° C. Into a suitable 96 well plate (Run Plate), 70 μL of 300 or 900 ng/μl esterase homogenate was pipetted into two rows as compounds were analyzed in duplicate (2 min, 5 min, 10 min, 20 min and 45 min). The plate was sealed and then warmed at 37° C. for 5 min.
Two 96 deep-well plates were put on ice (Kill Plates). To these, 990 μL of 50:50 MeCN—H2O were added to required rows, labelled 0 min 2 min, 5 min, 10 min, 20 min and 45 min. The plates were covered to minimize evaporation.
To both rows of the Run Plate, 70 μL of 10 μM compound solution was added. At the appropriate time point, 10 μL of the assay mixture was added to the matching kill plate well containing 990 μL of 50:50 cold MeCN—H2O. Samples were analyzed as soon as practicable by UPLC-MS (Waters Xevo TQ-S).
A heater shaker was set to 37° C. Into a suitable 96 well plate (Run Plate), 80 μL of 300 or 900 ng/μL esterase homogenate was pipetted into two rows as compounds were analyzed in duplicate (2 min, 5 min, 10 min, 20 min and 45 min). The plate was sealed and then warmed at 37° C. for 5 min.
Two 96 shallow-well plates were placed on ice (Kill Plates). To these, 180 μL of 60:40 MeCN-H2O+0.1% acetic acid are added to required rows. The plates were sealed to minimize evaporation.
To both rows of the Run Plate, 80 μL of 10 μM compound solution was added. At the appropriate time point, 20 μL of the assay mixture was added to the matching kill plate well containing 180 μL of 60:40 cold MeCN-H2O+0.1% acetic acid. For lipoic acid analysis, samples were analyzed as soon as practicable by LCMS (Waters Xevo TQ-S). For parent conjugate and parent analysis the samples are diluted further 1 in 10: 20 μL supernatant is added to 180 μL of 50:50 MeCN—H2O.

[2] = target: T1, glucocorticoid receptor (GR) (Homo sapiens, UniProt P04150); assay: Glucocorticoid Binding Assay, GR (h) (agonist radioligand); conditions: IM9 cytosol, 3H-dexamethasone competitive binding
T1 construct: by mixing 1 mg of IM9 cytosol; host or cells: IM9 human lymphoblast cell cytosol
T1 sequence (P04150 1-777): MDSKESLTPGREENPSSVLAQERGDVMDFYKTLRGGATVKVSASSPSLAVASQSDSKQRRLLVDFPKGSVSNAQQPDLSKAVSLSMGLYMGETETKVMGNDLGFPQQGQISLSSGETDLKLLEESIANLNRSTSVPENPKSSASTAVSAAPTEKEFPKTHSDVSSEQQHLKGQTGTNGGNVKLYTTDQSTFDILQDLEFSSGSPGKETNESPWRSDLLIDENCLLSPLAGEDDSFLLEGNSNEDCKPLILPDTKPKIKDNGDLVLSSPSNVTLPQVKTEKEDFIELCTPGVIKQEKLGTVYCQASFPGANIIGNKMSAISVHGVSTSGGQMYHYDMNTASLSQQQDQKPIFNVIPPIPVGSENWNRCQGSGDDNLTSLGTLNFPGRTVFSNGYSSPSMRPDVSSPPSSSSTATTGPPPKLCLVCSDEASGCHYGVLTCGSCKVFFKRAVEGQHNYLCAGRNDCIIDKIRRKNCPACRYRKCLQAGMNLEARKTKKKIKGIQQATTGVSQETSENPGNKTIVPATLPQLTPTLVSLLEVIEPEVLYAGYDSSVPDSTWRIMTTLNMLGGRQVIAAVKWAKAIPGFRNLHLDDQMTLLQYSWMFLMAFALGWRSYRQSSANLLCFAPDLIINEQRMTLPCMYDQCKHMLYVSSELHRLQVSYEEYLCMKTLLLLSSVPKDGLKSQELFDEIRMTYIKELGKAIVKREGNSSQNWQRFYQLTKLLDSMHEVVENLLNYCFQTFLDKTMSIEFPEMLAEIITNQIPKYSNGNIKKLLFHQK
Description: GR (h) (agonist radioligand) assay performed by Eurofins Cerep, France using a method similar to the one described hereinbelow.
The human lymphoblast cell line IM9 is used as a source of the soluble glucocorticoid receptor (GR). The cells are grown to densities of 1 to 10×10^5 cells per milliliter in RPMI 1640 media containing 10% fetal bovine serum, penicillin (100 U/ml), streptomycin (100 μg/ml), and 2 mM L-glutamine at […] and 7% CO2 in a humidified incubator. The IM9 cells are harvested from the media by centrifugation for 10 minutes at 1500 g. Cells are washed in 12 volumes of Dulbecco's phosphate-buffered saline (PBS) and re-pelleted. Washed cells are resuspended in five to six volumes (per volume of packed cells) of homogenization buffer (10 mM TES, 10 mM sodium molybdate, 1 mM EDTA, pH 7.4, 20 mM 2-mercaptoethanol, and 10% glycerol), and the cells are broken by nitrogen cavitation using 2×15 minutes at 600 to 750 psi nitrogen in the N2 cavitator at 0° C. Cell disruption is confirmed by Hoffman contrast microscopy using a Nikon Diaphot. The broken cell preparation is then centrifuged at 27,000 g for 15 minutes, and the resultant supernatant was centrifuged at 103,000 g for 60 minutes at 4° C. The amount of protein in the supernatant fraction is determined using a BCA assay kit with a bovine serum albumin standard. Aliquots of the supernatant fraction are snap frozen in a dry ice-acetone bath and stored at −70° C. Competitive binding assays are done in duplicate in homogenization buffer (total volume of […]) by mixing 1 mg of IM9 cytosol, 0.05/ρCi (3 nM) of ^3H-dexamethasone, and Compounds described herein (10^−5 to 10^−11 M). After incubation at 0° C. for 16 to 18 hours, the assay is stopped by the addition of […] of a charcoal-dextran mixture (2% activated charcoal, 0.5% dextran in 10 mM Tris, 1 mM EDTA, pH 7.4). The assay mixture is further incubated at 0° C. for 10 minutes before being centrifuged for 5 minutes at 8200 g. A 100-μl sample of the supernatant (protein-bound steroid fraction) is assayed for radioactivity by liquid scintillation spectrometry, and the IC50 values were determined graphically.
In some instances, an ester is active in the glucocorticoid binding assay. In some instances, an ester retains activity, such as when attached to a keratolytic agent (or a radical thereof), in the glucocorticoid binding assay.

[3] = tested on: dry eye; conditions: murine model; Sadrai et al 2012; cited from earlier work
[4] = tested on: psoriasis, alopecia, dermatitis, dry eye disease; conditions: humans and/or murine models; literature; cited from earlier work
[5] = tested on: keratoconjunctivitis and dry eye disease; conditions: humans and/or dogs; Kravetz de Oliveira 2019; cited from earlier work
[6] = tested on: alopecia; conditions: humans and murine models; NCT02974868; cited from earlier work
[7] = tested on: dermatitis, keratoconjunctivitis, dry eye disease; conditions: humans and/or dogs; literature; cited from earlier work
[8] = tested on: uveitis; conditions: humans and/or murine models; Gangaputra 2009; cited from earlier work
[9] = tested on: psoriasis, alopecia, uveitis; conditions: murine models; Mesa 2010, Falto-Aizpurua et al 2014, Lin et al 2021; cited from earlier work

SMILES: C[C@@H]1C[C@H]2[C@@H]3C[C@H](F)C4=CC(=O)C=C[C@]4(C)[C@@]3(F)[C@@H](O)C[C@]2(C)[C@@]1(OC(=O)CCCC[C@@H]1CCSS1)C(=O)OCC#N [Compound 73A, Cyanomethyl (6S,8S,9R,10S,11S,13S,14S,16R,17R)-17-((5-((R)-1,2-dithiolan-3-yl)pentanoyl)oxy)-6,9-difluoro-11-hydroxy-10,13,16-trimethyl-3-oxo-6,7,8,9,10,11,12,13,14,15,16,17-dodecahydro-3H-cyclopenta[a]phenanthrene-17-carboxylate]
- Esterase (0.15 mg/mL) % parent released after 45 min ([1]; rabbit cornea homogenate 0.15 mg/mL): A (<25%)
- Esterase (0.45 mg/mL) % parent released after 45 min ([1]; rabbit cornea homogenate 0.45 mg/mL): A (<25%)
- EC50 [2]: > 100 nM

SMILES: COc1ccc([C@]2(C#N)CC[C@@H](C(=O)O)CC2)cc1OC1CCCC1 [Cilomilast, cis-4-cyano-4-[3-(cyclopentyloxy)-4-methoxyphenyl]cyclohexanecarboxylic acid]
- objective signs of dry eye [3]: improvements in objective signs

SMILES: C[C@@H]1CCN(C(=O)CC#N)C[C@@H]1N(C)c1ncnc2[nH]ccc12 [Tofacitinib, 3-[(3R,4R)-4-Methyl-3-[methyl(7H-pyrrolo[2,3-d]pyrimidin-4-yl)amino]piperidin-1-yl]-3-oxopropanenitrile]
- objective signs of psoriasis, alopecia, dermatitis and dry eye disease [4]: improvements in objective signs

SMILES: C=CC[C@H]1/C=C(/C)C[C@@H](C)C[C@@H](OC)[C@@H]2O[C@@](O)(C(=O)C(=O)N3CCCCC3C(=O)O[C@H](/C(C)=C/[C@@H]3CC[C@@H](O)[C@H](OC)C3)[C@H](C)[C@@H](O)CC1=O)[C@H](C)C[C@@H]2OC (single isomer, unassigned; (-)) [Tacrolimus]
- objective signs of keratoconjunctivitis and dry eye disease [5]: improvements in objective signs

SMILES: C=CC(=O)N1C[C@H](Nc2ncnc3[nH]ccc23)CC[C@@H]1C [Ritlecitinib, 1-((2S,5R)-5-((7H-pyrrolo[2,3-d]pyrimidin-4-yl)amino)-2-methylpiperidin-1-yl)prop-2-en-1-one]
- objective signs of alopecia [6]: improvements in objective signs

SMILES: CC(=O)N1[C@H](C(=O)O[C@]2(C(=O)O)[C@H](C)C[C@H]3[C@@H]4C[C@H](F)C5=CC(=O)C=C[C@]5(C)[C@@]4(F)[C@@H](O)C[C@@]32C)CSC1(C)C [Chemical Synthesis Example 70, (6S,8S,9R,10S,11S,13S,14S,16R,17R)-17-(((R)-3-Acetyl-2,2-dimethylthiazolidine-4-carbonyl)oxy)-6,9-difluoro-11-hydroxy-10,13,16-trimethyl-3-oxo-6,7,8,9,10,11,12,13,14,15,16,17-dodecahydro-3H-cyclopenta[a]phenanthrene-17-carboxylic acid]
- EC50 [2]: > 100 nM

SMILES: CNS(=O)(=O)C[C@H]1CC[C@H](N(C)c2ncnc3[nH]ccc23)CC1 [Oclacitinib, N-methyl{trans-4-[methyl(7H-pyrrolo[2,3-d]pyrimidin-4-yl)amino]cyclohexyl}methanesulfonamide]
- objective signs of dermatitis, keratoconjunctivitis and dry eye disease [7]: improvements in objective signs

SMILES: C[C@]12C=CC(=O)C=C1CC[C@H]1[C@@H]3CC[C@](OC(=O)CCCC[C@@H]4CCSS4)(C(=O)OCCl)[C@@]3(C)C[C@H](O)[C@@]12F
- EC50 [2]: 0.35 nM

SMILES: CN(Cc1cnc2nc(N)nc(N)c2n1)c1ccc(C(=O)N[C@@H](CCC(=O)O)C(=O)O)cc1 [methotrexate, (2S)-2-[(4-{[(2,4-Diaminopteridin-6-yl)methyl](methyl)amino}benzoyl)amino]pentanedioic acid]
- objective signs of uveitis [8]: improvements in objective signs

SMILES: N#CC[C@H](C1CCCC1)n1cc(-c2ncnc3[nH]ccc23)cn1 [Ruxolitinib, (3R)-3-Cyclopentyl-3-[4-(7H-pyrrolo[2,3-d]pyrimidin-4-yl)pyrazol-1-yl]propanenitrile]
- objective signs of psoriasis, alopecia and uveitis [9]: improvements in objective signs
